Experimental data taken from patent US9682995B2, “Amino-substituted isothiazoles” (BAYER PHARMA AKTIENGESELLSCHAFT, priority 2013, dated 2017).
pIC50: −log10 of the molar value.

What was measured:
human Bub1 = human Bub1 (Homo sapiens (Human), UniProt O43683); test: Bub1 kinase assay (TR-FRET); assay type: biochemical; conditions: 10 μM ATP; read-out: Bub1 avg (IC50 [mol/l])
Text: Bub1-inhibitory activity of compounds of the present invention was quantified employing the Bub1 TR-FRET assay as described in the following paragraphs.
N-terminally His6-tagged recombinant catalytic domain of human Bub1 (amino acids 704-1085), expressed in insect cells (Hi5) and purified by Ni-NTA affinity chromatography and subsequent size exclusion chromatography, was used as enzyme. As substrate for the kinase reaction the biotinylated peptide biotin-Ahx-VLLPKKSFAEPG (C-terminus in amid form) was used which can be purchased e.g. form the company Biosyntan (Berlin, Germany).
For the assay 50 nl of a 100 fold concentrated solution of the test compound in DMSO was pipetted into a black low volume 384 well microtiter plate (Greiner Bio-One, Frickenhausen, Germany), 2 μl of a solution of Bub1 in aqueous assay buffer [50 mM Tris/HCl pH 7.5, 10 mM magnesium chloride (MgCl2), 200 mM potassium chloride (KCl), 1.0 mM dithiothreitol (DTT), 0.1 mM sodium ortho-vanadate, 1% (v/v) glycerol, 0.01% (w/v) bovine serum albumine (BSA), 0.005% (v/v) Trition X-100 (Sigma), 1× Complete EDTA-free protease inhibitor mixture (Roche)] were added and the mixture was incubated for 15 min at 22° C. to allow pre-binding of the test compounds to the enzyme before the start of the kinase reaction. Then the kinase reaction was started by the addition of 3 μl of a solution of adenosine-tri-phosphate (ATP, 16.7 μM=>final conc. in the 5 μl assay volume is 10 μM) and substrate (1.67 μM=>final conc. in the 5 μl assay volume is 1 μM) in assay buffer and the resulting mixture was incubated for a reaction time of 60 min at 22° C. The concentration of Bub1 was adjusted depending of the activity of the enzyme lot and was chosen appropriate to have the assay in the linear range, typical concentrations were in the range of 200 ng/ml. The reaction was stopped by the addition of 5 μl of a solution of TR-FRET detection reagents (0.2 μM streptavidine-XL665 [Cisbio Bioassays, Codolet, France] and 1 nM anti-phosho-Serine antibody [Merck Millipore, cat. #35-001] and 0.4 nM LANCE EU-W1024 labeled anti-mouse IgG antibody [Perkin-Elmer, product no. AD0077, as an alternative a Terbium-cryptate-labeled anti-mouse IgG antibody from Cisbio Bioassays can be used]) in an aqueous EDTA-solution (50 mM EDTA, 0.2% (w/v) bovine serum albumin in 100 mM HEPES pH 7.5).
(§1) The resulting mixture was incubated 1 h at 22° C. to allow the formation of complex between the phosphorylated biotinylated peptide and the detection reagents. Subsequently the amount of phosphorylated substrate was evaluated by measurement of the resonance energy transfer from the Eu-chelate to the streptavidine-XL. Therefore, the fluorescence emissions at 620 nm and 665 nm after excitation at 350 nm was measured in a TR-FRET reader, e.g. a Rubystar or Pherastar (both from BMG Labtechnologies, Offenburg, Germany) or a Viewlux (Perkin-Elmer). The ratio of the emissions at 665 nm and at […] was taken as the measure for the amount of phosphorylated substrate. The data were normalised (enzyme reaction without inhibitor=0% inhibition, all other assay components but no enzyme=100% inhibition).

CDK2/CycE = CDK2/CycE (Homo sapiens (Human), UniProt P24941); test: CDK2/CycE kinase assay (TR-FRET); assay type: biochemical; conditions: 10 μM ATP; read-out: CDK2 avg (IC50 [mol/l])
Text: CDK2/CycE-inhibitory activity of compounds of the present invention was quantified employing the CDK2/CycE TR-FRET assay as described in the following paragraphs.
Recombinant fusion proteins of GST and human CDK2 and of GST and human CycE, expressed in insect cells (Sf9) and purified by Glutathion-Sepharose affinity chromatography, were purchased from ProQinase GmbH (Freiburg, Germany). As substrate for the kinase reaction biotinylated peptide biotin-Ttds-YISPLKSPYKISEG (C-terminus in amid form) was used which can be purchased e.g. form the company JERINI peptide technologies (Berlin, Germany).
For the assay 50 nl of a 100 fold concentrated solution of the test compound in DMSO was pipetted into a black low volume 384 well microtiter plate (Greiner Bio-One, Frickenhausen, Germany), 2 μl of a solution of CDK2/CycE in aqueous assay buffer [50 mM Tris/HCl pH 8.0, 10 mM MgCl2, 1.0 mM dithiothreitol, 0.1 mM sodium ortho-vanadate, 0.01% (v/v) Nonidet-P40 (Sigma)] were added and the mixture was incubated for 15 min at 22° C. to allow pre-binding of the test compounds to the enzyme before the start of the kinase reaction. Then the kinase reaction was started by the addition of 3 μl of a solution of adenosine-tri-phosphate (ATP, 16.7 μM=>final conc. in the 5 μl assay volume is 10 μM) and substrate (1.25 μM=>final conc. in the 5 μl assay volume is 0.75 μM) in assay buffer and the resulting mixture was incubated for a reaction time of 25 min at 22° C. The concentration of CDK2/CycE was adjusted depending of the activity of the enzyme lot and was chosen appropriate to have the assay in the linear range, typical concentrations were in the range of 130 ng/ml. The reaction was stopped by the addition of 5 μl of a solution of TR-FRET detection reagents (0.2 μM streptavidine-XL665 [Cisbio Bioassays, Codolet, France] and 1 nM anti-RB(pSer807/pSer811)-antibody from BD Pharmingen [#558389] and 1.2 nM LANCE EU-W1024 labeled anti-mouse IgG antibody [Perkin-Elmer, product no. AD0077, as an alternative a Terbium-cryptate-labeled anti-mouse IgG antibody from Cisbio Bioassays can be used]) in an aqueous EDTA-solution (100 mM EDTA, 0.2% (w/v) bovine serum albumin in 100 mM HEPES/NaOH pH 7.0).
as §1, with “(BMG” for “or Pherastar (both from BMG”

Sequence of human Bub1 (O43683 704-1085): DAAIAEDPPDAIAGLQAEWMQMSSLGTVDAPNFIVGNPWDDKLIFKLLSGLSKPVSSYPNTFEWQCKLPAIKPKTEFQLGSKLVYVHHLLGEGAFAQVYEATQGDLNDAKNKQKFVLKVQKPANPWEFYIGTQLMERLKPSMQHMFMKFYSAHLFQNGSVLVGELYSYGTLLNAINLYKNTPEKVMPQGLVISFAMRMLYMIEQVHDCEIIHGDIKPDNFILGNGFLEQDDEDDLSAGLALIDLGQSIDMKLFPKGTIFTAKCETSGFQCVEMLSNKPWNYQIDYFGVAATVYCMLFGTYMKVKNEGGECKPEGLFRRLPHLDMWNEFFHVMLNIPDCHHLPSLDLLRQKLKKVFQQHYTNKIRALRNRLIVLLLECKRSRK

pIC50 (human Bub1) | pIC50 (CDK2/CycE) | Compound
< 4.70 | < 4.70 | CCOC(=O)c1sc(Nc2snc(C)c2C(=O)Nc2ccc(OC)nc2)nc1C [Example 30, Ethyl 2-({4-[(6-methoxypyridin-3-yl)carbamoyl]-3-methyl-1,2-thiazol-5-yl}amino)-4-methyl-1,3-thiazole-5-carboxylate]
< 4.70 | < 4.70 | CCc1ccccc1NC(=O)c1c(C)nsc1Nc1ccnc(C#N)n1 [Example 6, 5-[(2-Cyanopyrimidin-4-yl)amino]-N-(2-ethylphenyl)-3-methyl-1,2-thiazole-4-carboxamide]
< 4.70 | < 4.70 | CCc1ccccc1NC(=O)c1c(C)nsc1Nc1nc2ccccc2nc1C [Example 21, N-(2-Ethylphenyl)-3-methyl-5-[(3-methylquinoxalin-2-yl)amino]-1,2-thiazole-4-carboxamide]
< 4.70 | < 4.70 | Cc1nsc(Nc2cncc(C(=O)N(C)C)n2)c1C(=O)Nc1ccc(F)c(F)c1 [Example 104, 6-({4-[(3,4-Difluorophenyl)-carbamoyl]-3-methyl-1,2-thiazol-5-yl}amino)-N,N-dimethyl-pyrazine-2-carboxamide]
5.07 | < 4.70 | CCc1ccccc1NC(=O)c1c(C)nsc1Nc1nc2ccccc2s1 [Example 14, 5-(1,3-Benzothiazol-2-ylamino)-N-(2-ethylphenyl)-3-methyl-1,2-thiazole-4-carboxamide]
< 4.70 | < 4.70 | Cc1nsc(Nc2cnc3ccccc3n2)c1C(=O)Nc1ccc(OC2CCCCC2)nc1 [Example 115, N-[6-(Cyclohexyloxy)pyridin-3-yl]-3-methyl-5-(quinoxalin-2-ylamino)-1,2-thiazole-4-carboxamide]
< 4.70 | < 4.70 | CCOc1ccc(NC(=O)c2c(C)nsc2Nc2cnc3ccccc3n2)cn1 [Example 119, N-(6-Ethoxypyridin-3-yl)-3-methyl-5-(quinoxalin-2-ylamino)-1,2-thiazole-4-carboxamide]
< 4.70 | < 4.70 | Cc1nsc(Nc2ccc(C#N)cn2)c1C(=O)Nc1ccc(F)c(F)c1 [Example 28, 5-[(5-Cyanopyridin-2-yl)amino]-N-(3,4-difluorophenyl)-3-methyl-1,2-thiazole-4-carboxamide]
< 4.70 | < 4.70 | COc1ccc(NC(=O)c2c(C)nsc2Nc2cnc3ccc(Cl)cc3n2)cn1 [Example 42, 5-[(7-Chloroquinoxalin-2-yl)amino]-N-(6-methoxypyridin-3-yl)-3-methyl-1,2-thiazole-4-carboxamide]
< 4.70 | < 4.70 | CCc1ccccc1NC(=O)c1c(C)nsc1Nc1cc(-n2ccnc2)ncn1 [Example 9, N-(2-Ethylphenyl)-5-{[6-(1H-imidazol-1-yl)pyrimidin-4-yl]amino}-3-methyl-1,2-thiazole-4-carboxamide]
< 4.70 | < 4.70 | COc1ccc(NC(=O)c2c(C)nsc2Nc2nc3c(C(F)(F)F)cccc3s2)cn1 [Example 48, N-(6-Methoxypyridin-3-yl)-3-methyl-5-{[4-(trifluoromethyl)-1,3-benzothiazol-2-yl]-amino}-1,2-thiazole-4-carboxamide]
< 4.70 | < 4.70 | COC(=O)c1cnc(Nc2snc(C)c2C(=O)Nc2ccc(F)c(F)c2)o1 [Example 97, Methyl 2-({4-[(3,4-difluoro-phenyl)carbamoyl]-3-methyl-1,2-thiazol-5-yl}amino)-1,3-oxazole-5-carboxylate]
< 4.70 | < 4.70 | CCc1ccccc1NC(=O)c1c(C)nsc1Nc1cnccn1 [Example 1, N-(2-Ethylphenyl)-3-methyl-5-(pyrazin-2-ylamino)-1,2-thiazole-4-carboxamide]
5.51 | < 4.70 | COc1ccc(NC(=O)c2c(C)nsc2Nc2nccnc2C#N)cn1 [Example 24, 5-[(3-Cyanopyrazin-2-yl)amino]-N-(6-methoxypyridin-3-yl)-3-methyl-1,2-thiazole-4-carboxamide]
< 4.70 | < 4.70 | Cc1nsc(Nc2nc3c(C(F)(F)F)ccnc3s2)c1C(=O)Nc1ccc(Cl)c(F)c1 [Example 103, N-(4-Chloro-3-fluorophenyl)-3-methyl-5-{[7-(trifluoromethyl)[1,3]thiazolo[5,4-b]pyridin-2-yl]amino}-1,2-thiazole-4-carboxamide]
< 4.70 | < 4.70 | CCOC(=O)c1coc(Nc2snc(C)c2C(=O)Nc2ccc(F)c(F)c2)n1 [Example 98, Ethyl 2-({4-[(3,4-difluoro-phenyl)carbamoyl]-3-methyl-1,2-thiazol-5-yl}amino)-1,3-oxazole-4-carboxylate]
< 4.70 | < 4.70 | CCNC(=O)c1csc(Nc2snc(C)c2C(=O)Nc2ccc(F)c(F)c2)n1 [Example 99, N-(3,4-Difluorophenyl)-5-{[4-(ethylcarbamoyl)-1,3-thiazol-2-yl]amino}-3-methyl-1,2-thiazole-4-carboxamide]
< 4.70 | < 4.70 | CCc1ccccc1NC(=O)c1c(C)nsc1Nc1ncnc2ccccc12 [Example 10, N-(2-Ethylphenyl)-3-methyl-5-(quinazolin-4-ylamino)-1,2-thiazole-4-carboxamide]
< 4.70 | < 4.70 | COc1ccc(NC(=O)c2c(C)nsc2Nc2cnc3ccc(F)cc3n2)cn1 [Example 44, 5-[(7-Fluoroquinoxalin-2-yl)amino]-N-(6-methoxypyridin-3-yl)-3-methyl-1,2-thiazole-4-carboxamide]
< 4.70 | < 4.70 | Cc1nsc(Nc2cc(C#N)ccn2)c1C(=O)Nc1ccc(OC2CCCCC2)nc1 [Example 118, 5-[(4-Cyanopyridin-2-yl)amino]-N-[6-(cyclohexyloxy)pyridin-3-yl]-3-methyl-1,2-thiazole-4-carboxamide]
